One may read the Ki as a measure of affinity in units of concentration, obtained from inhibition or displacement.

This note sets out measurements from patent US7893256B2, “Azabicycloalkane compounds” (Theravance, Inc., priority 2003, dated 2011).

SMILES strings stand for the structures. Where only a bound is given, the exact number is not on record here.

In experiment [1] the target is T1, hM2 receptor (Homo sapiens, UniProt P08172).
T1 construct: expressed in transfected cells; host or cells: CHO-K1 cells
T1 sequence (P08172 1-466): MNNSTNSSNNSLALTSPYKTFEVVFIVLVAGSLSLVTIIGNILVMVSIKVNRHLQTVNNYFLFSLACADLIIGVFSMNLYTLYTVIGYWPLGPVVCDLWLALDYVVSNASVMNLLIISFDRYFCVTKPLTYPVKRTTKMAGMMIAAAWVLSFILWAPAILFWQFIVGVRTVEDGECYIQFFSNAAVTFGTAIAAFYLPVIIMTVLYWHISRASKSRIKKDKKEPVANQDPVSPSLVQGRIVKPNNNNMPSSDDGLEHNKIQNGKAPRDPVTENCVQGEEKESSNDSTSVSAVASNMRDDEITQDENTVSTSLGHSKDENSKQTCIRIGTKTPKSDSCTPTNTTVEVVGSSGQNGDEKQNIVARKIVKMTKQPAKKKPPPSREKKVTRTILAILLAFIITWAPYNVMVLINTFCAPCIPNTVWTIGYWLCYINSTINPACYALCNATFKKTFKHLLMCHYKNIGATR
The experiment in a line: Blockade of agonist-mediated [35S]GTPγS binding (Assay Test Procedure D, B). To be noted: CHO-K1 cells expressing the hM2 receptor; read-out: Ki value for blockade of oxotremorine-stimulated [35S]GTPγS binding. Format: biochemical. The procedure:
In a second functional assay, the functional potency of test compounds was determined by measuring the ability of the compounds to block oxotremorine-stimulated [^35S]GTPγS binding in CHO-K1 cells expressing the hM2 receptor.
At the time of use, frozen membranes were thawed and then diluted in assay buffer with a final target tissue concentration of 5-10 μg protein per well. The membranes were briefly homogenized using a Polytron PT-2100 tissue disrupter and then added to the assay plates.
The EC90 value (effective concentration for 90% maximal response) for stimulation of [^35S]GTPγS binding by the agonist oxotremorine was, determined in each experiment.
To determine the ability of a test compound to inhibit oxotremorine-stimulated [^35S]GTPγS binding, the following was added to each well of 96 well plates: […] of assay buffer with [^35S]GTPγS (0.4 nM), 25 μL of oxotremorine (EC90) and GDP (3 uM), 25 μL of diluted test compound and 25 μL CHO cell membranes expressing the hM2 receptor. […] Microscint-20 scintillation liquid (50 μL) was added to each well, and each plate was sealed and radioactivity counted on a Topcounter (PerkinElmer). Data were analyzed by nonlinear regression analysis with the GraphPad Prism Software package (GraphPad Software, Inc., San Diego, Calif.) using the non-linear regression, one-site competition equation. […]

Experiment [2] deals with T2, human β2 adrenergic receptor (Homo sapiens, UniProt P07550).
T2 construct: expressed in transfected cells; membranes
T2 sequence (P07550 whole entry): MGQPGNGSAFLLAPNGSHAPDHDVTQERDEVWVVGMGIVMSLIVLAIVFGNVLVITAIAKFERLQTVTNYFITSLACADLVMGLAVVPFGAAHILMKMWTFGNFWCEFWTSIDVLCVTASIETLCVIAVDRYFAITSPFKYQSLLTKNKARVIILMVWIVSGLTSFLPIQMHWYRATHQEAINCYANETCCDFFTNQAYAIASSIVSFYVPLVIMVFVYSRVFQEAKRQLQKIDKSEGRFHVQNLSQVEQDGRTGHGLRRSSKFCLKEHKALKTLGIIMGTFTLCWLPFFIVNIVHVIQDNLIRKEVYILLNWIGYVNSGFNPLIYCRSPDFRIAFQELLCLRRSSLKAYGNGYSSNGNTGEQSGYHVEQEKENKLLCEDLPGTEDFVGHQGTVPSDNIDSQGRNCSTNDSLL
The experiment in a line: Radioligand binding assay for human β2 adrenergic receptor (Assay Test Procedure A). Here is the method: Chinese hamster ovarian (CHO) cell lines stably expressing cloned human β1, β2 or β3 adrenergic receptors, respectively, were grown to near confluency in Hams F-12 media with 10% FBS in the presence of 500 μg/mL Geneticin. The cell monolayer was lifted with 2 mM EDTA in PBS. Cells were pelleted by centrifugation at 1,000 rpm, and cell pellets were either stored frozen at −80° C. or membranes were prepared immediately for use. For preparation of β1 and β2 receptor expressing membranes, cell pellets were re-suspended in lysis buffer (10 mM HEPES/HCl, 10 mM EDTA, pH 7.4 at 4° C.) and homogenized using a tight-fitting Dounce glass homogenizer (30 strokes) on ice. […] The protein concentration of the membrane suspension was determined by the methods described in Lowry et al., 1951, Journal of Biological Chemistry, 193, 265; and Bradford, Analytical Biochemistry, 1976, 72, 248-54. […]
Binding assays were performed in 96-well microtiter plates in a total assay volume of 100 μL with 10-15 μg of membrane protein containing the human β1, β2 or β3 adrenergic receptors in assay buffer (75 mM Tris/HCl pH 7.4 at 25° C., 12.5 mM MgCl2, 1 mM EDTA, 0.2% BSA). […] Non-specific binding was determined in the presence of 10 μM propranolol. […] Filter plates were washed three times with filtration buffer (75 mM Tris/HCl pH 7.4 at 4° C., 12.5 mM MgCl2, 1 mM EDTA) to remove unbound radioactivity. […]

As for `C[N+]1(CCCCCCCCCNC[C@H](O)c2ccc(O)c3[nH]c(=O)ccc23)C2CC(OC(=O)C(O)(c3cccs3)c3cccs3)CC1C1OC12.C[N+]1(CCCCCCCCCNC[C@H](O)c2ccc(O)c3[nH]c(=O)ccc23)C2CC(OC(=O)C(O)(c3cccs3)c3cccs3)CC1C1OC12.O=C([O-])C(F)(F)F.O=C([O-])C(F)(F)F` (stereo partly drawn) [Example 1, 7-(2-Hydroxy-2,2-dithiophen-2-ylacetoxy)-9-{9-[(R)-2-hydroxy-2-(8-hydroxy-2-oxo-1,2-dihydroquinolin-5-yl)ethylamino]nonyl}-9-methyl-3-oxa-9-azonia-tricyclo[3.3.1.0^2,4]nonane Ditrifluoroacetate], the Ki in experiment [1] was under 50 nM; in experiment [2] (radioligand displacement, CHO cell membranes, [3H]-dihydroalprenolol) it was under 50 nM. For the same compound, the “ratio of Ki(β1)/Ki(β2)” value in experiment [2] (receptor subtype selectivity, binding, β2 over β1) is given as “greater than 5”.
